Experimental data taken from patent publication EP3057951B1, “METHYLENE LINKED QUINOLINYL MODULATORS OF ROR-GAMMA-T” (Janssen Pharmaceutica NV, priority 2013, dated 2015).
Counter-ions that a name gives are not always drawn.

molecular target: T1, wild type human RORγt ligand binding domain (RORyt LBD) (Homo sapiens, UniProt P51449); experiment: RORγt ThermoFluor assay (thermal shift, binding affinity KD)
T1 construct: His-tag (N); TurboTEV protease cleavage site (ENLYFQG) (N); made in house; host or cells: E. coli (pHIS1, modified pET vector)
T1 sequence (P51449 258-518): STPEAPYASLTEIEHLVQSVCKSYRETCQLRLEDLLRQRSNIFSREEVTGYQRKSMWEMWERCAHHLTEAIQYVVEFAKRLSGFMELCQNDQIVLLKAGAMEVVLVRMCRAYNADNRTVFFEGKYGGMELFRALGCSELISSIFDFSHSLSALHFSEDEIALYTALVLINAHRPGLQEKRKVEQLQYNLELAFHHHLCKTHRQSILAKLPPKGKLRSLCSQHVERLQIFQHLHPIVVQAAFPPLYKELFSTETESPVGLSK

SMILES | Kd [nM]
CCc1nc2ccc(C(O)(c3cnnn3C)C3CN(C(C)=O)C3)cc2c(C#N)c1Cc1ccc(C(F)(F)F)cc1 (single isomer, unassigned) [Example 36, 6-((1-Acetylazetidin-3-yl)(hydroxy)(1-methyl-1H-1,2,3-triazol-5-yl)methyl)-2-ethyl-3-(4-(trifluoromethyl)benzyl)quinoline-4-carbonitrile] | 0.73
CCc1nc2ccc(C(O)(c3cnnn3C)C3CN(C(C)=O)C3)cc2c(C#N)c1Cc1ccc(C(F)(F)F)cc1 (single isomer, unassigned) [Example 37, 6-((1-Acetylazetidin-3-yl)(hydroxy)(1-methyl-1H-1,2,3-triazol-5-yl)methyl)-2-ethyl-3-(4-(trifluoromethyl)benzyl)quinoline4-carbonitrile] | 1.9
COc1nc2ccc(C(O)(C3CN(C(C)=O)C3)C3CN(C(C)=O)C3)cc2c(Cl)c1Cc1ccc(C(F)(F)F)cc1 [Example 3, 1,1'-(3,3'-((4-Chloro-2-methoxy-3-(4-(trifluoromethyl)benzyl)quinolin-6-yl)(hydroxy)methylene)bis(azetidine-3,1-diyl))diethanone] | 46
CCc1nc2ccc(C(O)(c3cnc(C)n3C)c3cnc(C)n3C)cc2c(Cl)c1Cc1ccc(C(F)(F)F)cc1 [Example 4, (4-Chloro-2-ethyl-3-(4-(trifluoromethyl)benzyl)quinolin-6-yl)bis(1,2-dimethyl-1H-imidazol-5-yl)methanole•TFA] | 0.006
COc1nc2ccc(C(O)(c3cnc(C)n3C)c3cnc(C)n3C)cc2c(Cl)c1Cc1cccc(C(F)(F)F)c1 [Example 5, (4-Chloro-2-methoxy-3-(3-(trifluoromethyl)benzyl)quinolin-6-yl)bis(1,2-dimethyt-1H-imidazol-5-yt)methanol•TFA] | 0.041
COc1nc2ccc(C(O)(c3cnc(C)n3C)c3cnc(C)n3C)cc2c(Cl)c1Cc1ccccc1C(F)(F)F [Example 6, (4-Chloro-2-methoxy-3-(2-(trifluoromethyl)benzyl)quinolin-6-yl)bis(1,2-dimethyl-1H-imidazol-5-yl)methanol•TFA] | 0.046
COc1nc2ccc(C(O)(c3cnc(C)n3C)c3cnc(C)n3C)cc2c(Cl)c1Cc1ccc(C(F)(F)F)s1 [Example 7, (4-Chloro-2-methoxy-3-((5-(trifluoromethyl)thiophen-2-yl)methyl)quinolin-6-yl)bis(1,2-dimethyl-1H-imidazol-5-yl)methanol•TFA] | 0.032
CCc1nc2ccc(C(O)(c3cnc(C)n3C)c3cnc(C)n3C)cc2c(C#N)c1Cc1ccc(C(F)(F)F)cc1 [Example 8, 6-(bis(1,2-Dimethyl-1H-imidazol-5-yl)(hydroxy)methyl)-2-ethyl-3-(4-(trifluoromethyl)benzyl)quinoline-4-carbonitrile.TFA] | 0.009
COc1nc2ccc(C(O)(c3cnc(C)n3C)c3cnc(C)n3C)cc2c(C#N)c1Cc1cccc(C(F)(F)F)c1 [Example 9, 6-(bis(1,2-Dimethyl-1H-imidazol-5-yl)(hydroxy)methyl)-2-methoxy-3-(3-(trifluoromethyl)benzyl)quinoline-4-carbonitrile•TFA] | 0.055
COc1nc2ccc(C(O)(c3cnc(C)n3C)c3cnc(C)n3C)cc2c(C#N)c1Cc1ccccc1C(F)(F)F [Example 10, 6-(bis(1,2-Dimethyl-1H-imidazol-5-yl)(hydroxy)methyl)-2-methoxy-3-(2-(trifluoromethyl)benzyl)quinoline-4-carbonitrile•TFA] | 0.17
COc1nc2ccc(C(O)(c3cnc(C)n3C)c3cnc(C)n3C)cc2c(C#N)c1Cc1ccc(C(F)(F)F)cc1 [Example 11, 6-(bis(1,2-Dimethyl-1H-imidazol-5-yl)(hydroxy)methyl)-2-methoxy-3-(4-(trifluoromethyl)benzyl)quinoline-4-carbonitrile] | 0.013

Results, then the compound that gave them:

Kd [nM] | SMILES
970 | COc1nc2ccc(C(O)(c3ccc(C)nc3C)c3cnc(C)n3C)cc2c(Cl)c1Cc1ccc(C(F)(F)F)nc1 (single isomer, unassigned) [Example 42b, (4-Chloro-2-methoxy-3-((6-(trifluoromethyl)pyridin-3-yl)methyl)quinolin-6-yl)(1,2-dimethyl-1H-imidazol-5-yl)(2,6-dimethylpyridin-3-yl)methanol]
0.18 | COc1nc2ccc(C(O)(c3ccc(C)nc3C)c3cnc(C)n3C)cc2c(Cl)c1Cc1ccc(C(F)(F)F)nc1 (single isomer, unassigned) [Example 42c, (4-Chloro-2-methoxy-3-((6-(trifluoromethyl)pyridin-3-yl)methyl)quinolin-6-yl)(1,2-dimethyl-1H-imidazol-5-yl)(2,6-dimethylpyridin-3-yl)methanol]
180 | COc1nc2ccc(C(O)(c3ccc(C)nc3C)c3cnc(C)n3C)cc2c(Cl)c1Cc1ccc(C(F)(F)F)cc1 (single isomer, unassigned) [Example 57b, (4-Chloro-2-methoxy-3-(4-(trifluoromethyl)benzyl)quinolin-6-yl)(1,2-dimethyl-1H-imidazol-5-yl)(2,6-dimethylpyridin-3-yl)methanol]
0.02 | COc1nc2ccc(C(O)(c3ccc(C)nc3C)c3cnc(C)n3C)cc2c(Cl)c1Cc1ccc(C(F)(F)F)cc1 (single isomer, unassigned) [Example 57c, (4-Chloro-2-methoxy-3-(4-(trifluoromethyl)benzyl)quinolin-6-yl)(1,2-dimethyl-1H-imidazol-5-yl)(2,6-dimethylpyridin-3-yl)methanol]
3600 | COc1nc2ccc(C(O)(c3ccccn3)c3cncn3C)cc2c(Cl)c1Cc1ccc(S(C)(=O)=O)cc1 (single isomer, unassigned) [Example 58b, (4-Chloro-2-methoxy-3-(4-(methylsulfonyl)benzyl)quinolin-6-yl)(1-methyl-1H-imidazol-5-yl)(pyridin-2-yl)methanol]
370 | COc1nc2ccc(C(O)(c3ccccn3)c3cncn3C)cc2c(Cl)c1Cc1ccc(S(C)(=O)=O)cc1 (single isomer, unassigned) [Example 58c, (4-Chloro-2-methoxy-3-(4-(methylsulfonyl)benzyl)quinolin-6-yl)(1-methyl-1H-imidazol-5-yl)(pyridin-2-yl)methanol]
34 | COc1nc2ccc(C(O)(c3ccccn3)c3cncn3C)cc2c(Cl)c1Cc1cc2ccccc2s1 (single isomer, unassigned) [Example 59b, (3-(Benzo[b]thiophen-2-ylmethyl)-4-chloro-2-methoxyquinolin-6-yl)(1-methyl-1H-imidazol-5-yl)(pyridin-2-yl)methanol]
800 | COc1nc2ccc(C(O)(c3ccccn3)c3cncn3C)cc2c(Cl)c1Cc1cc2ccccc2s1 (single isomer, unassigned) [Example 59c, (3-(Benzo[b]thiophen-2-ylmethyl)-4-chloro-2-methoxyquinolin-6-yl)(1-methyl-1H-imidazol-5-yl)(pyridin-2-yl)methanol]
6.8 | COc1nc2ccc(C(O)(c3ccc(C(F)(F)F)nc3)c3cnnn3C)cc2c(Cl)c1Cc1ccc(C(F)(F)F)cc1 (single isomer, unassigned) [Example 75b, (4-Chloro-2-methoxy-3-(4-(trifluoromethyl)benzyl)quinolin-6-yl)(1-methyl-1H-1,2,3-triazol-5-yl)(6-(trifluoromethyl)pyridin-3-yl)methanol]
2.5 | COc1nc2ccc(C(O)(c3ccc(C(F)(F)F)nc3)c3cnnn3C)cc2c(Cl)c1Cc1ccc(C(F)(F)F)cc1 (single isomer, unassigned) [Example 75c, (4-Chloro-2-methoxy-3-(4-(trifluoromethyl)benzyl)quinolin-6-yl)(1-methyl-1H-1,2,3-triazol-5-yl)(6-(trifluoromethyl)pyridin-3-yl)methanol]
27 | COc1nc2ccc(C(O)(c3cnc(C)n3C)C3CCOCC3)cc2c(Cl)c1Cc1ccc(C(F)(F)F)cc1 (single isomer, unassigned) [Example 86b, (4-Chloro-2-methoxy-3-(4-(trifluoromethyl)benzyl)quinolin-6-yl)(1,2-dimethyl-1H-imidazol-5-yl)(tetrahydro-2H-pyran-4-yl)methanol]
0.06 | COc1nc2ccc(C(O)(c3cnc(C)n3C)C3CCOCC3)cc2c(Cl)c1Cc1ccc(C(F)(F)F)cc1 (single isomer, unassigned) [Example 86c, (4-Chloro-2-methoxy-3-(4-(trifluoromethyl)benzyl)quinolin-6-yl)(1,2-dimethyl-1H-imidazol-5-yl)(tetrahydro-2H-pyran-4-yl)methanol]
580 | COc1nc2ccc(C(O)(c3cnnn3C)C3CN(C)C3)cc2c(Cl)c1Cc1ccc(C(F)(F)F)cc1 (single isomer, unassigned) [Example 90b, (4-Chloro-2-methoxy-3-(4-(trifluoromethyl)benzyl)quinolin-6-yl)(1-methyl-1H-1,2,3-triazol-5-yl)(1-methylazetidin-3-yl)methanol]
3.4 | COc1nc2ccc(C(O)(c3cnnn3C)C3CN(C)C3)cc2c(Cl)c1Cc1ccc(C(F)(F)F)cc1 (single isomer, unassigned) [Example 90c, (4-Chloro-2-methoxy-3-(4-(trifluoromethyl)benzyl)quinolin-6-yl)(1-methyl-1H-1,2,3-triazol-5-yl)(1-methylazetidin-3-yl)methanol]
0.06 | Cc1nc2ccc(C(O)(c3cnnn3C)c3cnc(C)n3C)cc2c(Cl)c1Cc1ccc(C(F)(F)F)cc1 (stereo not drawn) [Example 29a, (4-Chloro-2-methyl-3-(4-(trifluoromethyl)benzyl)quinolin-6-yl)(1,2-dimethyl-1H-imidazol-5-yl)(1-methyl-1H-1,2,3-triazol-5-yl)methanol]
0.28 | Cc1nc2ccc(C(O)(c3ccnc(C(F)(F)F)c3)c3cncn3C)cc2c(Cl)c1Cc1ccc(C(F)(F)F)cc1 (stereo not drawn) [Example 30a, (4-Chloro-2-methyl-3-(4-(trifluoromethyl)benzyl)quinofin-6-yl)(1-methyl-1H-imidazol-5-yl)(2-(trifluoromethyl)pyridin4-yl)methanol]
